One block for each compound: values may come before it. Calls of active or inactive are those of the source. The rule behind the calls is not given here.
How the values were obtained:
[1] = target: T1, DCAF11-BRD4 (Homo sapiens, UniProt O60885+Q8TEB1); experiment: PROTAC activity at DCAF11/BRD4 BD1 domain (unknown origin) expressed in HEK293T cells assessed as induction of BRD4 degradation at 1 uM incubated for 12 hrs by Dual fluorescence reporter cell high content imaging analysis relative to control; format: cell-based
T1 sequence (Q8TEB1 whole entry, looked up, other chains not shown, the tested form may be a part): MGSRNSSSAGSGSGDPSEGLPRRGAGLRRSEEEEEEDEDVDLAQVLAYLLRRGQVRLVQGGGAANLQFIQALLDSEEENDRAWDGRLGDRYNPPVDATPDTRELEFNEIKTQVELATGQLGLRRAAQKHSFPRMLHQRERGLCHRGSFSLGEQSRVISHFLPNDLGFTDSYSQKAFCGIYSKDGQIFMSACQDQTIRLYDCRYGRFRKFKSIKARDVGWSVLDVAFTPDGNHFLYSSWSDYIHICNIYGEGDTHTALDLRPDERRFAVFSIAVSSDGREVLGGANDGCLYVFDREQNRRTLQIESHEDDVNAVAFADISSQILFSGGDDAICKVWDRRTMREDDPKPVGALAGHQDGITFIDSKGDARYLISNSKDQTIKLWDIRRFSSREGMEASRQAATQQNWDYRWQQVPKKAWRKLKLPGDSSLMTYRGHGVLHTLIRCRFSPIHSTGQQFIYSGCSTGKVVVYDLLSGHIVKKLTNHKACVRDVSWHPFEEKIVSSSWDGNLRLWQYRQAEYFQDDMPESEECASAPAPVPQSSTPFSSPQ

[2] = test system: HEK293T; experiment: Induction of BRD4 BD1 domain (unknown origin) degradation expressed in DCAF11 knockout HEK293T cells assessed as decrease in red fluorescence at 1 uM incubated for 12 hrs by dual fluorescence reporter cell based high content imaging analysis; conditions: Homo sapiens
[3] = target: T1, DCAF11-BRD4; experiment: PROTAC activity at DCAF11/BRD4 in human MDA-MB-231 cells assessed as induction of BRD4 degradation at 1 uM incubated for 12 hrs in presence of JQ1 by immunoblot analysis; format: cell-based
[4] = target: T1, DCAF11-BRD4; experiment: PROTAC activity at DCAF11/BRD4 BD1 domain (unknown origin) expressed in HEK293T cells assessed as induction of BRD4 degradation at 10 to 100 nM incubated for 12 hrs by Dual fluorescence reporter cell high content imaging analysis; format: cell-based; conditions: dose 10-100 nM
[5] = target: T1, DCAF11-BRD4; experiment: PROTAC activity at DCAF11/BRD4 in human MDA-MB-231 cells assessed as induction of BRD4 degradation at 10 to 100 nM incubated for 1 hrs by immunoblot analysis; format: cell-based; conditions: dose 10-100 nM
[6] = target: T1, DCAF11-BRD4; experiment: PROTAC activity at DCAF11/BRD4 in human MDA-MB-231 cells assessed as induction of BRD4 degradation at 1 uM measured within 1 hrs by immunoblot analysis; format: cell-based
[7] = target: T1, DCAF11-BRD4; experiment: PROTAC activity at DCAF11/BRD4 in human MDA-MB-231 cells assessed as induction of BRD4 degradation incubated for 12 hrs by immunoblot analysis; format: cell-based; conditions: dose 0.1-1000 nM
[8] = target: T1, DCAF11-BRD4; experiment: PROTAC activity at DCAF11/BRD4 in human MDA-MB-231 cells assessed as induction of BRD4 degradation at 10 nM incubated for 12 hrs by immunoblot analysis; format: cell-based
[9] = target: T1, DCAF11-BRD4; experiment: PROTAC activity at DCAF11/BRD4 in human MDA-MB-231 cells assessed as induction of BRD4 degradation by immunoblot analysis; format: cell-based
[10] = test system: MDA-MB-231; experiment: Effect on BRD4 mRNA gene expression in human MDA-MB-231 cells at 0.1 to 1 microM incubated for 12 hrs by qPCR analysis; format: functional, cell-based; conditions: dose 0.1-1 µM
[11] = test system: MDA-MB-231; experiment: Downregulation of BRD4 protein expression in human MDA-MB-231 cells at 1 uM incubated for 6 hrs by proteomic analysis; format: functional, cell-based
[12] = target: T1, DCAF11-BRD4; experiment: PROTAC activity at DCAF11/BRD4 in human MDA-MB-231 cells assessed as induction of BRD4 degradation at 1 uM preincubated with MG132 for 1 hrs and measured after compound addition by immunoblot analysis; format: cell-based
[13] = target: T1, DCAF11-BRD4; experiment: PROTAC activity at DCAF11/BRD4 in human MDA-MB-231 cells assessed as induction of BRD4 degradation at 1 uM preincubated with bortezomib for 1 hrs and measured after compound addition by immunoblot analysis; format: cell-based
[14] = target: T1, DCAF11-BRD4; experiment: PROTAC activity at DCAF11/BRD4 in human MDA-MB-231 cells assessed as induction of BRD4 degradation at 1 uM preincubated with PYR41 for 1 hrs and measured after compound addition by immunoblot analysis; format: cell-based
[15] = target: T1, DCAF11-BRD4; experiment: PROTAC activity at DCAF11/BRD4 in human MDA-MB-231 cells assessed as induction of BRD4 degradation at 1 uM preincubated with MLN4924 for 1 hrs and measured after compound addition by immunoblot analysis; format: cell-based
[16] = target: T1, DCAF11-BRD4; experiment: PROTAC activity at DCAF11/BRD4 in human MDA-MB-231 cells assessed as induction of BRD4 degradation at 1 uM preincubated with chloroquine for 1 hrs and measured after compound addition by immunoblot analysis; format: cell-based
[17] = target: T1, DCAF11-BRD4; experiment: PROTAC activity at DCAF11/BRD4 in human MDA-MB-231 cells assessed as induction of BRD4 degradation at 1 uM preincubated with bafilomycin A1 for 1 hrs and measured after compound addition by immunoblot analysis; format: cell-based
[18] = test system: HEK293T; experiment: Induction of BRD4 BD1 domain (unknown origin) degradation expressed in DCAF11 knockout HEK293T cells at 1 uM incubated for 12 hrs by immunoblot analysis; format: cell-based; conditions: Homo sapiens
[19] = target: T1, DCAF11-BRD4; experiment: PROTAC activity at DCAF11/BRD4 in human MDA-MB-231 cells assessed as induction of BRD4 degradation at 1 uM incubated for 12 hrs in presence of tert-butyl 2-(4-methyl-2-((2-oxo-6-(trifluoromethyl)indolin-3-ylidene)methyl)phenoxy)acetate by immunoblot analysis; format: cell-based
[20] = target: T1, DCAF11-BRD4; experiment: Binding affinity to HA-tagged DCAF11/Flag-tagged BRD4 BD1 domain (unknown origin) expressed in HEK293T cells by co-immunoprecipitation analysis; format: cell-based
[21] = target: T1, DCAF11-BRD4; experiment: Binding affinity to DCAF11/BRD4 BD1 domain in HEK293T cells by co-immunoprecipitation analysis; format: cell-based
[22] = test system: MCF7; experiment: Antiproliferative activity against human MCF7 cells assessed as reduction in cell viability incubated for 2 days by CCK8 assay; format: functional, cell-based; conditions: MCF7, 48 h
[23] = test system: T47D; experiment: Antiproliferative activity against human T47D cells assessed as reduction in cell viability incubated for 2 days by CCK8 assay; format: functional, cell-based; conditions: 48 h
[24] = test system: MDA-MB-231; experiment: Antiproliferative activity against human MDA-MB-231 cells assessed as reduction in cell viability incubated for 2 days by CCK8 assay; format: functional, cell-based; conditions: MDA-MB-231, 48 h
[25] = test system: MDA-MB-157; experiment: Antiproliferative activity against human MDA-MB-157 cells assessed as reduction in cell viability incubated for 2 days by CCK8 assay; format: functional, cell-based; conditions: MDA-MB-157, 48 h
[26] = test system: MDA-MB-468; experiment: Antiproliferative activity against human MDA-MB-468 cells assessed as reduction in cell viability incubated for 2 days by CCK8 assay; format: functional, cell-based; conditions: MDA-MB-468, 48 h
[27] = test system: HCC1937; experiment: Antiproliferative activity against human HCC1937 cells assessed as reduction in cell viability incubated for 2 days by CCK8 assay; format: functional, cell-based; conditions: HCC1937, 48 h
[28] = test system: BT-549; experiment: Antiproliferative activity against human BT-549 cells assessed as reduction in cell viability incubated for 2 days by CCK8 assay; format: functional, cell-based; conditions: BT-549, 48 h
[29] = target: T1, DCAF11-BRD4; experiment: PROTAC activity at DCAF11/BRD4 in human T47D cells assessed as induction of BRD4 degradation at 1 uM incubated for 12 hrs by immunoblot analysis; format: cell-based
[30] = target: T1, DCAF11-BRD4; experiment: PROTAC activity at DCAF11/BRD4 in human BT-549 cells assessed as induction of BRD4 degradation at 1 uM incubated for 12 hrs by immunoblot analysis; format: cell-based
[31] = target: T1, DCAF11-BRD4; experiment: PROTAC activity at DCAF11/BRD4 in human MCF7 cells assessed as induction of BRD4 degradation at 1 uM incubated for 12 hrs by immunoblot analysis; format: cell-based
[32] = target: T1, DCAF11-BRD4; experiment: PROTAC activity at DCAF11/BRD4 in human MDA-MB-468 cells assessed as induction of BRD4 degradation at 1 uM incubated for 12 hrs by immunoblot analysis; format: cell-based
[33] = target: T1, DCAF11-BRD4; experiment: PROTAC activity at DCAF11/BRD4 in human MDA-MB-157 cells assessed as induction of BRD4 degradation at 1 uM incubated for 12 hrs by immunoblot analysis; format: cell-based
[34] = target: T1, DCAF11-BRD4; experiment: PROTAC activity at DCAF11/BRD4 in human HCC1937 cells assessed as induction of BRD4 degradation at 1 uM incubated for 12 hrs by immunoblot analysis; format: cell-based
[35] = target: T1, DCAF11-BRD4; experiment: PROTAC activity at DCAF11/BRD4 in human MDA-MB-231 cells assessed as induction of BRD4 degradation at 1 to 100 nM incubated for 1 hrs by Western blot analysis; format: cell-based; conditions: dose 1-100 nM
[36] = test system: MDA-MB-231; experiment: Inhibition of cell migration in human MDA-MB-231 cells at 0.1 to 1 uM measured after 48 hrs by crystal violet staining based transwell migration assay; format: functional; conditions: dose 0.1-1 µM
[37] = test system: MDA-MB-231; experiment: Induction of apoptosis in human MDA-MB-231 cells assessed as increase in cleaved PARP level by immunoblot analysis; format: functional, cell-based
[38] = test system: MDA-MB-231; experiment: Induction of apoptosis in human MDA-MB-231 cells assessed as increase in cleaved caspase-7 level by immunoblot analysis; format: functional, cell-based

Activity [1]: > 35%
Structure (SMILES): Cc1ccc(OCC(=O)NCCCOCCOCCOCCCNC(=O)C[C@@H]2N=C(c3ccc(Cl)cc3)c3c(sc(C)c3C)-n3c(C)nnc32)c(/C=C2\C(=O)Nc3ccc(Br)cc32)c1 (stereo in doubt)
Activity [2]: inactive

Activity [3]: inactive | Activity [1]: > 35% | Activity [4]: Active | Activity [5]: Active | Activity [6]: Active | Activity [7]: Dose-dependent-effect | Activity [8]: Active | DC50 [9]: 0.00736 µM | Activity [12]: inactive | Activity [13]: inactive | Activity [14]: inactive | Activity [15]: inactive | Activity [16]: Active | Activity [17]: Active | Activity [19]: inactive | Activity [20]: Active | Activity [21]: Active | IC50 [22]: 2.85 µM | IC50 [23]: 0.63 µM | IC50 [24]: 0.07 µM | IC50 [25]: 0.1 µM | IC50 [26]: 0.02 µM | IC50 [27]: 0.18 µM | IC50 [28]: 6.37 µM | Activity [29]: Active | Activity [30]: Active | Activity [31]: Active | Activity [32]: Active | Activity [33]: Active | Activity [34]: Active
Structure (SMILES): Cc1ccc(OCC(=O)NCCCOCCOCCOCCCNC(=O)C[C@@H]2N=C(c3ccc(Cl)cc3)c3c(sc(C)c3C)-n3c(C)nnc32)c(/C=C2\C(=O)Nc3cc(C(F)(F)F)ccc32)c1 (stereo in doubt)
Activity [10]: inactive | Activity [11]: Active | Activity [2]: inactive | Activity [18]: inactive | Activity [35]: Active; Degradation Capability Comparable To Dbet6 And Mz1 | inhibition [36]: Active | Activity [37]: Active | Activity [38]: Active

Structure (SMILES): Cc1sc2c(c1C)C(c1ccc(Cl)cc1)=N[C@@H](CC(=O)NCCCOCCOCCOCCCNC(=O)c1ccsc1/C=C1/C(=O)Nc3cc(C(F)(F)F)ccc31)c1nnc(C)n1-2
Activity [2]: inactive

Activity [1]: > 35% | Activity [5]: Active
Structure (SMILES): Cc1sc2c(c1C)C(c1ccc(Cl)cc1)=N[C@@H](CC(=O)NCCCOCCOCCOCCCNC(=O)COc1ccc(/C=C3/C(=O)Nc4cc(C(F)(F)F)ccc43)nc1)c1nnc(C)n1-2 (stereo in doubt)
Activity [2]: inactive

Activity [1]: > 35%
Structure (SMILES): Cc1sc2c(c1C)C(c1ccc(Cl)cc1)=N[C@@H](CC(=O)NCCCOc1ccc(Br)cc1/C=C1/C(=O)Nc3cc(C(F)(F)F)ccc31)c1nnc(C)n1-2
Activity [2]: inactive

Structure (SMILES): Cc1sc2c(c1C)C(c1ccc(Cl)cc1)=N[C@@H](CC(=O)NCCCOCCOCCOCCCNC(=O)COc1ccc(Br)cc1/C=C1\C(=O)Nc3cc(C(F)(F)F)ccc31)c1nnc(C)n1-2
Activity [2]: inactive

Structure (SMILES): Cc1sc2c(c1C)C(c1ccc(Cl)cc1)=N[C@@H](CC(=O)NCCCOc1c(Br)cc(Br)c(/C=C3/C(=O)Nc4cc(C(F)(F)F)ccc43)c1Br)c1nnc(C)n1-2
Activity [2]: inactive

Activity [1]: > 35% | Activity [5]: Active
Structure (SMILES): Cc1sc2c(c1C)C(c1ccc(Cl)cc1)=N[C@@H](CC(=O)NCCCOCCOCCOCCCNC(=O)COc1ccc(/C=C3/C(=O)Nc4ccc(Br)cc43)cc1)c1nnc(C)n1-2 (stereo in doubt)
Activity [2]: inactive

Reference: ChEMBL document CHEMBL6078642, “Design, Synthesis, and Activity Evaluation of BRD4 PROTAC Based on Alkenyl Oxindole-DCAF11 Pair” (J Med Chem, 2024)
